Holding throughout (type): functional
One experiment has as its system Streptococcus pneumoniae. The experiment in a line: Antimicrobial activity against gram positive Streptococcus pneumoniae (PARK) was determined.
A further experiment deals with Escherichia coli. The experiment can be described thus: Antimicrobial activity against gram negative Escherichia coli (EC14) was determined.
Experiment [1] has as its system Staphylococcus aureus. The experiment in a line: Antimicrobial activity against gram positive Staphylococcus aureus (X1.1) was determined.
Experiment [2] relates to Staphylococcus epidermidis. The experiment in a line: Antimicrobial activity against gram positive Staphylococcus epidermidis (222) was determined.
Experiment [3] has as its system Staphylococcus aureus. The experiment can be described thus: Antimicrobial activity against gram positive Staphylococcus aureus (V41) was determined.

The source of these data is ChEMBL document CHEMBL1127137, “3-phosphono-1-carba-1-dethiacephalosporins as antibacterial agents” (1993).

Converted amounts (≈) assume the structure as drawn.

Turning to `COP(=O)(OC)OC1=C(C(=O)[O-])N2C(=O)[C@@H](NC(=O)COc3ccccc3)[C@H]2CC1.[Na+]`, the MIC in the experiment on Streptococcus pneumoniae worked out at 0.5 µg/mL; against Escherichia coli, 64 µg/mL; with Staphylococcus aureus [1] it was 0.5 µg/mL; in experiment [2], 1 µg/mL; against Staphylococcus aureus [3], 2 µg/mL.

In the case of `N[C@@H](C(=O)N[C@@H]1C(=O)N2C(C(=O)O)=C(Cl)CC[C@H]12)c1ccccc1` [LORACARBEF ANHYDROUS], the MIC in the experiment on Streptococcus pneumoniae came to 1 µg/mL (≈ 2.86 µM); with Escherichia coli it was 0.05 µg/mL (≈ 0.143 µM); against Staphylococcus aureus [1], 2 µg/mL (≈ 5.72 µM); in experiment [2], 2 µg/mL (≈ 5.72 µM); in the experiment with Staphylococcus aureus [3], 4 µg/mL (≈ 11.4 µM).

On to `CCCCOP(=O)(OCCCC)OC1=C(C(=O)[O-])N2C(=O)[C@@H](NC(=O)COc3ccccc3)[C@H]2CC1.[Na+]`, for which the MIC with Streptococcus pneumoniae is 0.03 µg/mL; against Escherichia coli it was greater than 128 µg/mL; with Staphylococcus aureus [1] it was 0.5 µg/mL; in experiment [2], 1 µg/mL; with Staphylococcus aureus [3], 64 µg/mL.

`CCOP(=O)(OCC)OC1=C(C(=O)[O-])N2C(=O)[C@@H](NC(=O)COc3ccccc3)[C@H]2CC1.[Na+]`: the MIC was found to be 0.25 µg/mL against Streptococcus pneumoniae; 64 µg/mL in the experiment with Escherichia coli; 0.25 µg/mL against Staphylococcus aureus [1]; 1 µg/mL in experiment [2]; 2 µg/mL in the experiment with Staphylococcus aureus [3].

For the compound `CC1(C)S[C@@H]2[C@H](NC(=O)COc3ccccc3)C(=O)N2[C@H]1C(=O)O` [PENICILLIN V], the MIC in the experiment with Streptococcus pneumoniae worked out at 0.06 µg/mL (≈ 0.171 µM); in the experiment with Escherichia coli, 128 µg/mL (≈ 365 µM); with Staphylococcus aureus [1], 0.06 µg/mL (≈ 0.171 µM); in experiment [2], 0.125 µg/mL (≈ 0.357 µM); in the experiment on Staphylococcus aureus [3] it was 16 µg/mL (≈ 45.7 µM).

Turning to `O=C(COc1ccccc1)N[C@@H]1C(=O)N2C(C(=O)O)=C(OP(=O)(O)O)CC[C@H]12`, the MIC in the experiment with Streptococcus pneumoniae is greater than 128 µg/mL; with Escherichia coli, greater than 128 µg/mL; against Staphylococcus aureus [1], 64 µg/mL (≈ 155 µM); in experiment [2], greater than 128 µg/mL; in the experiment with Staphylococcus aureus [3] it was greater than 128 µg/mL.
